From paper PMC4786259 (PLoS ONE, 2016)

Tested on: WT and dopamine transporter knockout (DAT-KO) mice
Assay: Prepulse inhibition in WT and DAT-KO mice
Conditions: 2 mg/kg clozapine i.p.

## CN1CCN(C2=Nc3cc(Cl)ccc3Nc3ccccc32)CC1 [clozapine]
  PPI in DAT-KO mice: restored
  PPI in WT mice: not affected
